In assay [1] the test system is hES cells maintained in feeder cells-free culture system. Description: Liposomal ceramide treatment of hES cells in feeder cell-free culture (GFR-MATRIGEL). The format is cell-based, human. Conditions: five micromolar. An excerpt:
NIH-registered hES cell lines, H1 (WA-01; 46XY) and H9 (WA-09; 46XX), are maintained on mouse embryonic fibroblasts (feeder cells) as recommended by the WiCell Research Institute (Madison, Wis.). Mouse feeder cells are irradiated (7500 Rad) and plated (2×10^4 cells/cm^2) on 6-well plates pre-coated with 0.1% gelatin. Feeder cells are allowed to attach and grow overnight prior to hES cell co-culture. Human ES cells are maintained with Dulbecco's Modified Eagle Medium/F12 (Gibco) supplemented with 20% KnockOut serum replacement (Gibco), 1% nonessential amino acids (Gibco), 2 mM GlutaMAX-1 (Gibco), 4 ng/ml basic human FGF (Invitrogen) and 0.1 mM beta-mercaptoethanol (Sigma). Cells are manually passaged following 10 min of collagenase IV incubation (1 mg/ml) at 1:5-1:10 split ratio every 5-7 days. For feeder cell-free culture, hES cells are plated and cultured on 6-well dishes coated with growth factor reduced (GFR)-MATRIGEL, diluted 1:24 in DMEM/F12. Human ES cells co-cultured with feeder cells are treated with collagenase IV for 10 min, collected manually and plated in a 1:3-1:5 split ratio (day=0). Cells are maintained with normal hES cell culture medium until treatment with ceramide (day=2). […]
Light microscopy images of cells from 10 random fields are recorded using a Nikon TS-100 phase-contrast microscope and a Nikon CoolPix 5000 digital camera. […]

Assay [2] has as its system hES cells, H1 or H9. Description: Liposomal ceramide treatment of hES cell colonies co-cultured with mouse feeder cells. In kind it is cell-based.
Procedure: Mouse feeder cells are irradiated (7500 Rad) and plated (2×10^4 cells/cm^2) on 6-well plates pre-coated with 0.1% gelatin. Feeder cells are allowed to attach and grow overnight prior to hES cell co-culture. Human ES cells are maintained with Dulbecco's Modified Eagle Medium/F12 (Gibco) supplemented with 20% KnockOut serum replacement (Gibco), 1% nonessential amino acids (Gibco), 2 mM GlutaMAX-1 (Gibco), 4 ng/ml basic human FGF (Invitrogen) and 0.1 mM beta-mercaptoethanol (Sigma). Cells are manually passaged following 10 min of collagenase IV incubation (1 mg/ml) at 1:5-1:10 split ratio every 5-7 days. […] Human ES cells co-cultured with feeder cells are treated with collagenase IV for 10 min, collected manually and plated in a 1:3-1:5 split ratio (day=0). Cells are maintained with normal hES cell culture medium until treatment with ceramide (day=2).
Increasing concentrations, 1, 3, 5, 10, 15 and 30 micromolar, of liposomal C6-ceramide are added to hES cell culture medium after a majority of the colonies had reached a size between 0.5-0.7 mm in diameter (day 5-6 of the culture). Relative volumes of “ghost liposome” containing no ceramide are used as a control. These ghost liposomes contained an equal mass of total lipids as ceramide formulations. […]
The test system of assay [3] is hES cells. Description: In vitro differentiation of hES cells. The format is cell-based, human. Conditions: after elimination of ceramide-sensitive cells. The source says:
Once separated from feeder cells and serum, hES cells typically spontaneously differentiate into progenitor cells and such cultures include ectoderm, mesoderm and endoderm progenitor cells. Similar to in vivo embryogenesis, further differentiation of these progenitor cells results in formation of terminally differentiated cell types illustratively including neurons, cardiomyocytes, endothelial, and pancreatic β-cells. The ability of hES cells to form all three embryonic lineages is one of the main criteria to determine their pluripotency. Early lineage differentiation is assessed using lineage specific markers. Exemplary lineage specific markers include nestin for ectodermal; α-fetoprotein for endodermal; and brachyury for mesodermal. Later stages of differentiation of these progenitor cells into specialized cells are assessed by assay of markers for more specialized cells representing three lineages, such as serotonergic neurons, insulin-positive cells, and cardiomyocytes.
To assess in vitro differentiation, hES cells are isolated and transferred into non-coated culture plates where hES cells form embryoid bodies (EBs). For neuronal differentiation, these EBs are treated with a neurobasal medium (insulin-transferrin-selenium) to induce neuroprogenitor cell formation for seven days. Then, bFGF ([…]) is added to medium for another seven days. […]

The test system of assay [4] is hES cells. Description: Apoptosis detection by TUNEL assay. In kind it is cell-based, human. Conditions: Example 22, hESC colonies. Here is the method: Ceramide-induced apoptosis is assessed and visualized by TUNEL assay using the In Situ Cell Death Detection Kit, TMR Red (Roche Applied Bioscience). A TUNEL (Terminal deoxynucleotidyl Transferase Biotin-dUTP Nick End Labeling) assay measures and quantitates apoptosis by labeling DNA strand breaks in individual cells and detecting them by fluorescence microscopy. Human ES cells are cultured on glass cover-slips coated with 0.1% gelatin and mouse feeder cells. When the majority of the colonies reached the size of 0.5-0.7 mm (usually by day 5 of the culture), cells are treated with liposomal C6-ceramide (3 micromolar final) or ghost (no ceramide) for 12 hr. Cells are incubated for 12 hr because cells undergoing apoptosis are still attached to the cover-slip, making observation convenient. After 12 hr, cells become round and detached. At the end of the treatment period, cells are fixed with 4% formaldehyde (Tousimis) in PBS. TUNEL assay is performed using the In Situ Cell Death Detection Kit, TMR Red (Roche Applied Bioscience) following the manufacturer's instructions. Briefly, cells are permeabilized by incubating in 0.1% PBST for 2 min on ice. TUNEL reaction mixture is prepared freshly by mixing 50 microliters of enzyme solution (terminal deoxynucleotidyl transferase) with 450 microliters label solution (nucleotide mixture). […]

ceramide: the “effect on differentiation of hESCs without feeder cells” value in assay [1] is “inhibits differentiation and allows maintenance of undifferentiated stem cell growth”. The “effect on peripheral cells of H9 hESC colonies” value in assay [2] (5 micromolar, 8 hrs, H9 (WA09), with MEF) is listed as “eliminates cells located on the periphery of the hESC colonies”. Moreover, the “growth of central hESCs after addition of ceramide” value in assay [2] (Example 22) is “continue their normal growth”. In assay [3], the “differentiation capability of ceramide-selected hES cells” value is “capable of differentiated into ectoderm, mesoderm or endoderm progenitor cells”. Moreover, the “TUNEL: apoptosis after ceramide-conditioning” value in assay [4] was “hESCs on the periphery of the colonies are, indeed, undergoing apoptosis”.
